Measured values taken from patent US10597398B2, “Suppression and regeneration promoting effect of low molecular weight compound on cancer and fibrosis” (NATIONAL UNIVERSITY CORPORATION TOTTORI UNIVERSITY, priority 2015, dated 2020).

Key:
Wnt/β-catenin signaling = test: Inhibitory effect on Wnt/β-catenin signaling in mesenchymal stem cells (E7-TCF4 luciferase); format: cell-based, human; details: concentration equal to or lower than that of IC-2
Procedure: A pTCF4-CMVpro-GL4.20 plasmid vector, having 3 copies of TCF4 motifs (CCT TTG ATC) upstream of aCMV promoter in a multiple cloning site of pGL4.20 (Promega Corp., Fitchburg, Wis.), was linearized and stably transfected into UE7T-13 cells to prepare E7-TCF4 cells. Also, a pCMVpro-GL4.20 plasmid vector, having a CMV promoter in a multiple cloning site of pGL4.20, was linearized and stably transfected into UE7T-13 cells. The resulting stable cells (E7-CMV cells) were cultured, like UE7T-13 cells, in 10% FBS/DMEM containing 0.25 μg/mL puromycin.
UE7T-13 cells were used to measure Wnt/β-catenin signaling activity. The concentrations of the respective compounds were as described in FIG. 42. Each control sample used was 0.1% DMSO, a solvent for each compound.
First, 70 to 90% confluent E7-TCF4 cells and E7-CMV cells were harvested and seeded (n=3) at 1.6758×10^4 cells/well of a 24-well plate (9.0×10^3 cells/cm^2). One day after that, each compound was added to the cells and the mixture was cultured at 37° C. Day 4 after the compound addition, the culture medium was changed.
At day 1, 4, or 8 after the compound treatment, the culture medium was discarded, and 100 μL of room temperature 5×Passive Lysis Buffer (PLB), which had been diluted 5-fold with MilliQ water, was added to each well. Next, the plate was shaken at room temperature for 15 min and was then frozen at −30° C. overnight. A Luciferase Assay Substrate was diluted with 10 mL of room temperature Luciferase Assay Buffer II to prepare Luciferase Assay Reagent II (LARII). The frozen PLB lysate samples were thawed and permeabilized for 15 min. Then, 10 μL aliquots were added to wells of a 96-well white plate. While 50 μL aliquots of LARII were each added to each well, luminescence was quantified by using a 1420 multi-label counter ARVO MX to determine firefly luciferase activity.

mesenchymal stem cell = test: Hepatocyte differentiation-inducing effect, summary statements on Example 4 (readout not specified); format: cell-based, human; details: low concentration
Source text: Albumin, a hepatocyte marker, was used as an indicator, and RNA was collected from cells treated with each compound. Next, a hepatocyte differentiation-inducing effect was examined by real-time RT-PCR. The concentrations of the respective compounds were as described in FIG. 35. Each control sample used was 0.1% DMSO, a solvent for each compound.
By using urea synthesis, a hepatocyte function, as an indicator, a hepatocyte differentiation-inducing effect of each compound was investigated.
The cells treated with each compound were subjected to immunofluorescence analysis of albumin, a hepatocyte marker, to investigate a hepatocyte differentiation-inducing effect. The concentrations of the respective compounds were as described in FIG. 37. Each control sample used was 0.1% DMSO, a solvent for each compound.
By using glycogen synthesis, a hepatocyte function, as an indicator, a hepatocyte differentiation-inducing effect of each compound was investigated.

[1] = test system: cancer stem cells (CD44) in HuH-7 cells; test: Inhibitory effect on cancer stem cells (FCM analysis of CD44), Example 2.4; format: cell-based, human; details: comparison with IC-2
Procedure: CD44, a cancer stem cell marker, was used as an indicator to examine an inhibitory effect of each compound on cancer stem cells. The concentrations of the respective compounds were as described in FIG. 32. Each control sample used was 0.1% DMSO, a solvent for each compound. In the figures, the “‡” indicates a significant difference of p<0.01.
First, 70 to 90% confluent HuH-7 cells were harvested and seeded at 1.5×10^6 cells per 10-cm cell culture dish. After 24 h, each compound was added to the cells and the mixture was cultured at 37° C. At 48 h after the compound treatment, the cells were harvested from each culture dish. The cells were centrifuged at 1000 rpm and at 4° C. for 3 min to remove a supernatant and were then washed twice with 1 mL of 0.5% FBS/2 mM EDTA/PBS. Next, the cells were suspended in 500 μL of 5% BSA/0.5% FBS/2 mM EDTA/PBS for blocking at 4° C. for 15 min. Then, 5 μL of a mouse anti-human CD44 monoclonal antibody (156-3C11, Cell Signaling Technology Inc., Danvers, Mass.) was added to 500 μL of the cell suspension. The mixture was resuspended and subjected to a primary antibody reaction in a dark room at 4° C. for 30 min. After that, the cells were washed 3 times with 1 mL of 0.5% FBS/2 mM EDTA/PBS. Subsequently, 100 μL of Alexa Fluor 488-labeled IgG (H+L) (ab150113, Abcam Ltd., Cambridge, UK), which had been diluted 200-fold with 5% BSA/0.5% FBS/2 mM EDTA/PBS, was added and the cells were suspended. Then, a secondary antibody reaction was carried out in a dark room at 4° C. for 30 min. After that, the cells were washed 3 times with 1 mL of 0.5% FBS/2 mM EDTA/PBS. Thereafter, the cells were suspended in 500 μL of 0.5% FBS/2 mM EDTA/PBS and were made to pass through a 40 μm-mesh column (Becton, Dickinson and Company, Franklin Lakes, N.J.). A Beckman Coulter-Moflo XDP (Beckman Coulter Inc., Fullerton, Calif.) was used for analysis. Following the analysis, further analysis was conducted by adding 2 μL of 0.25 mg/mL Propidium Iodide (PI). The same experiment was repeated four times.

CD44high DLD-1 cells = test: CD44high cells in DLD-1 cells (FCM analysis); format: cell-based, human; details: 48 h, 50 μM IC-2, 0.5 or 5 μM 5-FU, compared with control
Procedure: In addition, DLD-1 cells were seeded at 1×10^6 cells/10-cm cell culture dish. After 24 h, the cells were treated with 0.5 or 5 μM of 5-FU or 50 μM of IC-2. At additional 48 h, the cells were harvested. As a primary antibody, used was a mouse anti-human CD44 antibody (Abcam Ltd., Cambridge, UK). Then, Alexa Fluor 488-labeled goat anti-mouse IgG (H+L) (Life Technologies Corp., Carlsbad, Calif.) was used. After that, a MoFlo XDP (Beckman Coulter Inc., Fullerton, Calif.) was used for analysis.

[2] = test system: HSC2 cells (squamous cell carcinoma cells); test: Growth of squamous cell carcinoma cells (Cell Counting Kit-8); format: cell-based; details: HSC2 cells, 0, 24, 72, 96 h
Procedure: HSC2 cells (squamous cell carcinoma cells) were seeded at 2.5×10^3 cells/well of a 96-well plate (TPP Techno Plastic Products AG, Trasadingen, Switzerland). Next, 0, 24, 72, and 96 h after that, 100 μL of 10% Cell Counting Kit-8 (DOJINDO LABORATORIES, Kumamoto) was added. The mixture was incubated at 37° C. and its absorbance (at a measurement wavelength of 450 nm/control wavelength of 600 nm) was measured by using a Sunrise Rainbow RC (Tecan Group Ltd., Mannedorf, Switzerland).

hepatocyte-inducing effect at low concentration (mesenchymal stem cell)	SMILES	inhibitory effect on Wnt/β-catenin signaling pathway in mesenchymal stem cells compared with IC-2 (Wnt/β-catenin signaling)	inhibitory effect on cancer stem cells compared with IC-2 [1]	percentage of CD44high cells (CD44high DLD-1 cells)	growth inhibitory effect on squamous cell carcinoma cells [2]
exerted a hepatocyte-inducing effect	COc1ccc(COc2ccc(CNC(=O)N3CCC(=O)N4C(Cc5ccccc5)C(=O)N(Cc5cccc6ccccc56)CC34)cc2)cc1 (centres unmarked) [IC-2-OPMB]	more potent inhibitory effect	more potent inhibitory effect on cancer stem cells than IC-2	–	–
–	O=C1C(Cc2ccccc2)N2C(=O)CCN(C(=O)NCc3ccccc3)C2CN1Cc1cccc2ccccc12 (centres unmarked) [IC-2]	–	–	significantly reduced the percentage of CD44^high cells	exhibited a growth inhibitory effect
